According to US20220273807A1, “CONJUGATES FOR USE IN METHODS OF TREATING CANCER” (AstraZeneca AB, priority 2018, published 2022):

Columns and labels:
NCI-H1048 tumor cells = experiment: Human small cell lung cancer tumor model (NCI-H1048), single agent and combination; assay type: in vivo, C.B.-17 SCID female mice; conditions: AZD2014 15 mg/kg daily (qd), oral; p<0.05
Procedure: Compound 1 was formulated in citrate/phosphate buffer pH 5.0 containing 4.5% w/v glucose and dosed intravenously (iv) in a volume of 5 ml/kg. AZD2014 was formulated in 0.5% hydroxypropyl methylcellulose/0.1% Tween 80 and dosed oral in a volume of 10 ml/kg 5×10^6 NCI-H1048 tumor cells were injected subcutaneously in the right flank of C.B.-17 SCID female mice in a volume of 0.1 mL containing 50% matrigel. Tumor volume (measured by caliper) was calculated using the formula: length (mm) x width (mm)^2×0.52. For efficacy studies, mice were randomized based on tumor volume and growth inhibition was assessed by comparison of the differences in tumor volume between control and treated groups. Dosing began when mean tumor volume reached approximately 124 mm^3.

RS4; 11 cells = experiment: Efficacy in RS4:11 xenograft model; assay type: in vivo, mouse; conditions: Compound A 5 mg/kg
Procedure: Preparation of Compound PBS formulations for dosinq RS4:11 efficacy study: The appropriate amounts of Compound 1 were weighed into a volumetric flask. 10 mL Dulbecc's Phosphate Buffered Saline (PBS) was added and formulations were then stirred until the compound dissolved entirely.
Formulation of Compound A in 30% w/v HP-β-CD
30% w/v HP-β-CD vehicle was prepared. 3 g HP-β-CD (Roquette Kleptose, parenteral grade) was weighed into a 10 mL volumetric flask and 8 mL WFI added and stirred (or sonicated) to dissolve. Once dissolved the volume was made up to 10 mL with WFI.
The appropriate amount of Compound A was weighed into a 10 mL volumetric flask. 8 mL of 30% w/v HP-β-CD vehicle was then added and the formulation stirred. 1M MSA was added dropwise until the pH was reduced to about 2. The formulation was then stirred until the compound dissolved entirely. The pH was measured and adjusted to pH 4, dropwise using 1M MSA or NaOH. […] The final pH was measured and recorded and the formulation filtered through a 0.22 uM filter prior to administration. […]
On specific day, for each treated group, calculate Inhibition value by formula: Inhibition %=(CG−TG)*100/(CG−1), in which “CG” means the geometric mean of rtv of the control group and “TG” means the Geometric Mean of Relative Tumor Volume (rtv) of the treated group. “CG” should use the corresponding control group of the treated group when calculated. […]

OCI-Ly10 tumor cells = experiment: Human DLBCL xenograft model (OCI-Ly10), single agent and combination; assay type: in vivo, C.B.-17 SCID female mice; conditions: single agent acalabrutinib 12.5 mg/kg bid po
Procedure: 5×10^6 OCI-Ly10 tumor cells were injected subcutaneously in the right flank of C.B.-17 SCID female mice in a volume of 0.1 mL containing 50% matrigel. Compound 1 was formulated in citrate/phosphate buffer pH 5.0, diluted 1 to 10 with 5% glucose containing 1% w/v Kolliphor HS15, and dosed as a weekly intravenous (iv) administration at a volume of 5 mL/kg at a dose of 103 mg/kg (30 mg/kg API). Acalabrutinib was formulated in 0.5% hydroxypropyl methyl cellulose/0.2% Tween 80, and dosed twice a day (bid) as an oral (po) administration at a volume of 10 mL/kg at a dose of 12.5 mg/kg. Tumor volumes (measured by caliper), animal body weight, and tumor condition were recorded twice weekly for the duration of the study. The tumor volume was calculated using the formula: length (mm) x width (mm)^2×0.52. For efficacy studies, growth inhibition from the start of treatment was assessed by comparison of the differences in tumor volume between control and treated groups. Dosing began when mean tumor size reached approximately 166 mm3.

CNC(=O)c1cccc(-c2ccc3c(N4CCOC[C@@H]4C)nc(N4CCOC[C@@H]4C)nc3n2)c1 [AZD2014, vistusertib]
anti-tumor activity, TGI (NCI-H1048 tumor cells): 84%

CN(CCO)CC[C@H](CSc1ccccc1)Nc1ccc(S(=O)(=O)NC(=O)c2ccc(N3CCC([C@@H](O)c4ccccc4-c4ccc(Cl)cc4)CC3)cc2)cc1S(=O)(=O)C(F)(F)F [Compound A]
% Inhibition Day (47) (RS4; 11 cells): >100%
% Regression Day(47) (RS4; 11 cells): 90%

CC#CC(=O)N1CCC[C@H]1c1nc(-c2ccc(C(=O)Nc3ccccn3)cc2)c2c(N)nccn12 [acalabrutinib]
tumor growth inhibition (TGI) (OCI-Ly10 tumor cells): ~58%
